The values that follow are results of earlier work, collected in US7056538B2, “Disinfectant solution based on sodium hypochlorite, and process for preparing it” (Aziende Chimiche Riunite Angelini Francesco A.C.R.A.F. …, priority 2001, dated 2006).

SMILES strings stand for the structures.

The conditions of this data set: 25° C.

In the case of `OCl` [hypochlorous acid], the “dissociation constant pKa” value was 7.49.
